Measurements published in patent US20250339436A1, “CRYSTALLINE FORMS OF MRTX1133” (MIRATI THERAPEUTICS, INC., priority 2024, published 2025).
Entries after “also recorded” stand apart in the source; their conditions may differ. Marks after values point to notes of the source that are not given here.

Key:
Assay type in all cases: physicochemical
[1] = Accelerated stability study of MRTX1133 amorphous form vs crystalline Forms VIII and IX; conditions: for stability under the conditions tested (conclusion): 25° C./60% RH and 40° C./75% RH; for trend of impurity values and assay results: all tested storage conditions
Protocol: Chemical stability and water content studies were conducted on amorphous MRTX1133 and MRTX1133 Forms VIII and IX according to well-known methods summarized below.
The stability studies of the amorphous form were done as follows.
The required amount was placed in a clear Class A glass bottle, 24 mL, with closed-top cap, sealed in opaque resealable Zipper bag. Per each storage condition there was one bottle, and the sampling was performed from the same bottle. Each bottle was labeled with protocol number, compound ID, lot number and storage condition.
The experimental conditions for stability testing of Forms VIII and IX were similar. However, the samples were placed in double LDPE bags filled with nitrogen protection, then placed into a heat-sealed foil bag, and into an HDPE container containing desiccant packs.

[2] = Thermogravimetric analysis (TGA)
Protocol: Thermogravimetric Analysis (TGA)
Instrument: Discovery 5500
Parameters: Nitrogen Flow balance 10 mL/min; sample 25 mL/min; start temperature: ambient condition (below 35° C.); final temperature: 300° C.; heating rate: 10° C./min; sample mass ˜2-10 mg. […]

[3] = Bulk stability studies of MRTX1133 Forms II, VI, VIII and IX (solid state, 1-2 weeks); conditions: for Initial Purity by UPLC: before storage
Protocol: Stability studies of all four forms were conducted according to well-known methods. The results are summarized below in Tables 4-11.

[4] = Dynamic vapor sorption (DVS); conditions: 25° C./95% RH
Protocol: Dynamic Vapor Sorption (DVS)
Instrument: Intrinsic, Advantage or Adventure;
Total gas flow: 200 sccm; oven temperature: 25° C., solvent: water; method: • Cycle: 40-0-95-0-40% RH • Stage Step: 10% • Equilibrium: 0.002 dm/dt (%/min) Minimum dm/dt stability duration: 60 min • Maximum dm/dt stage time: 360 min

[5] = 40° C./75% RH, 2M, by HPLC, listed as amorphous
[6] = 40° C./75% RH, 3M, by HPLC, listed as amorphous
[7] = 25° C./60% RH, open container, 1 week
[8] = 25° C./60% RH, open container, 2 weeks
[9] = 25° C./92.5% RH, open container, 1 week
[10] = 25° C./92.5% RH, open container, 2 weeks
[11] = 40° C./75% RH, open container, 1 week
[12] = 40° C./75% RH, open container, 2 weeks
[13] = 60° C., tight container, 1 week
[14] = 60° C., tight container, 2 weeks

C#Cc1c(F)ccc2cc(O)cc(-c3ncc4c(N5CC6CCC(C5)N6)nc(OC[C@@]56CCCN5C[C@H](F)C6)nc4c3F)c12 [Amorphous]
stability under the conditions tested (conclusion) [1]: not stable
Moisture ([1]; 25° C./60% RH, 1M): 3.4 % w/w
Assay ([1]; 25° C./60% RH, 1M, by HPLC): 89.5 w/w %
Total Impurities ≥ 0.05% ([1]; 25° C./60% RH, 1M, by HPLC): 4.35 Area %
Moisture ([1]; 25° C./60% RH, 2M): 4.2 % w/w
Assay ([1]; 25° C./60% RH, 2M, by HPLC): 87.7 w/w %
Total Impurities ≥ 0.05% ([1]; 25° C./60% RH, 2M, by HPLC): 4.74 Area %
Moisture ([1]; 25° C./60% RH, 3M): 4.6 % w/w
Assay ([1]; 25° C./60% RH, 3M, by HPLC): 86.1 w/w %
Total Impurities ≥ 0.05% ([1]; 25° C./60% RH, 3M, by HPLC): 6.13 Area %
Moisture ([1]; 40° C./75% RH, 1M): 2.7 % w/w
Assay ([1]; 40° C./75% RH, 1M, by HPLC): 82.8 w/w %
Total Impurities ≥ 0.05% ([1]; 40° C./75% RH, 1M, by HPLC): 8.03 Area %
Moisture ([1]; 40° C./75% RH, 2M): 5.2 % w/w
Assay ([1]; 40° C./75% RH, 2M, by HPLC): 70.1 w/w %
Total Impurities ≥ 0.05% ([1]; 40° C./75% RH, 2M, by HPLC): 13.21 Area %
Assay [1, 5]: 70 w/w %
Total Impurities ≥ 0.05% [1, 5]: 13.2 Area %
Moisture ([1]; 40° C./75% RH, 3M): 5.8 % w/w
Assay ([1]; 40° C./75% RH, 3M, by HPLC): 61.3 w/w %
Total Impurities ≥ 0.05% ([1]; 40° C./75% RH, 3M, by HPLC): 17.75 Area %
Assay [1, 6]: 61 w/w %
Total Impurities ≥ 0.05% [1, 6]: 17.8 Area %
Moisture ([1]; T(0)): 2.9 % w/w
Total Impurities ≥ 0.05% ([1]; T(0), by HPLC): 2.24 Area %
Total Impurities ≥ 0.05% ([1]; T(0), by HPLC, listed as amorphous): 2.2 Area %
Assay ([1]; T(0), by Q-NMR): 94.2^b w/w %
Assay ([1]; T(0), by Q-NMR, listed as amorphous): 94 w/w %
trend of impurity values and assay results [1]: substantial increases in impurity values and corresponding decreases in assay results

C#Cc1c(F)ccc2cc(O)cc(-c3ncc4c(N5C[C@H]6CC[C@@H](C5)N6)nc(OC[C@@]56CCCN5C[C@H](F)C6)nc4c3F)c12 [Form IX, 4-(4-((1R,5S)-3,8-diazabicyclo[3.2.1]octan-3-yl)-8-fluoro-2-(((2R,7aS)-2-fluorohexahydro-1H-pyrrolizin-7a-yl)methoxy)pyrido[4,3-d]pyrimidin-7-yl)-5-ethynyl-6-fluoronaphthalen-2-ol]
onset of degradation as estimated by TGA [2]: about 190 °C
weight loss observed by TGA ([2]; before 190° C. (onset of degradation)): about 0.5%
weight loss observed by TGA ([2]; before 190° C. (onset of degradation), listed as MRTX1133 Form IX): 0.5% weight loss observed
Bulk (UPLC) purity [3, 7]: 98.0%
Bulk (UPLC) purity [3, 8]: 98.0%
Bulk (XRPD) form [3, 8]: No form change
Bulk color [3, 8]: no change of color
Bulk (UPLC) purity [3, 9]: 97.9%
Bulk (UPLC) purity [3, 10]: 98.1%
Bulk (XRPD) form [3, 10]: No form change
Bulk color [3, 10]: no change of color
Bulk (UPLC) purity [3, 11]: 97.8%
Bulk (XRPD) form [3, 11]: No form change
Bulk (UPLC) purity [3, 12]: 98.0%
Bulk (XRPD) form [3, 12]: No form change
Bulk color [3, 12]: no change of color
Bulk (UPLC) purity [3, 13]: 97.9%
Bulk (UPLC) purity [3, 14]: 98.1%
Bulk (XRPD) form [3, 14]: No form change
Bulk color [3, 14]: no change of color
Initial Purity by UPLC [3]: 97.9%
stability under the conditions tested (conclusion) [1]: much more stable; also recorded: stable
Moisture ([1]; 25° C./60% RH, 1M): 0.56 % w/w
Assay ([1]; 25° C./60% RH, 1M, by HPLC): 98.0 w/w %
Total Impurities ≥ 0.05% ([1]; 25° C./60% RH, 1M, by HPLC): 1.5 Area %
Moisture ([1]; 25° C./60% RH, 2M): 0.65 % w/w
Assay ([1]; 25° C./60% RH, 2M, by HPLC): 97.6 w/w %
Total Impurities ≥ 0.05% ([1]; 25° C./60% RH, 2M, by HPLC): 1.4 Area %
Moisture ([1]; 25° C./60% RH, 3M): 0.70 % w/w
Assay ([1]; 25° C./60% RH, 3M, by HPLC): 98.2 w/w %
Total Impurities ≥ 0.05% ([1]; 25° C./60% RH, 3M, by HPLC): 1.7 Area %
Moisture ([1]; 25° C./60% RH, 6M): 0.66 % w/w
Assay ([1]; 25° C./60% RH, 6M, by HPLC): 98.5 w/w %
Total Impurities ≥ 0.05% ([1]; 25° C./60% RH, 6M, by HPLC): 1.7 Area %
moisture content trend ([1]; 40° C./75% RH): relatively stable
Moisture ([1]; 40° C./75% RH, 1M): 0.56 % w/w
Assay ([1]; 40° C./75% RH, 1M, by HPLC): 97.6 w/w %
Total Impurities ≥ 0.05% ([1]; 40° C./75% RH, 1M, by HPLC): 1.8 Area %
Moisture ([1]; 40° C./75% RH, 2M): 0.63 % w/w
Assay ([1]; 40° C./75% RH, 2M, by HPLC): 97.3 w/w %
Total Impurities ≥ 0.05% ([1]; 40° C./75% RH, 2M, by HPLC): 1.8 Area %
Moisture ([1]; 40° C./75% RH, 3M): 0.66 % w/w
Assay ([1]; 40° C./75% RH, 3M, by HPLC): 96.5 w/w %
Total Impurities ≥ 0.05% ([1]; 40° C./75% RH, 3M, by HPLC): 2.0 Area %
Moisture ([1]; 40° C./75% RH, 6M): 0.70 % w/w
Assay ([1]; 40° C./75% RH, 6M, by HPLC): 96.9 w/w %
Total Impurities ≥ 0.05% ([1]; 40° C./75% RH, 6M, by HPLC): 2.3 Area %
Moisture ([1]; T(0)): 0.94 % w/w
Assay ([1]; T(0), by HPLC): 96.2 w/w %
Total Impurities ≥ 0.05% ([1]; T(0), by HPLC): 1.2 Area %
trend of impurity values and assay results [1]: no increases in impurity values and no decreases in assay results

C#Cc1c(F)ccc2cc(O)cc(-c3ncc4c(N5C[C@H]6CC[C@@H](C5)N6)nc(OC[C@@]56CCCN5C[C@H](F)C6)nc4c3F)c12 [Form VIII, 4-(4-((1R,5S)-3,8-diazabicyclo[3.2.1]octan-3-yl)-8-fluoro-2-(((2R,7aS)-2-fluorohexahydro-1H-pyrrolizin-7a-yl)methoxy)pyrido[4,3-d]pyrimidin-7-yl)-5-ethynyl-6-fluoronaphthalen-2-ol]
onset of degradation as estimated by TGA [2]: about 180 °C
weight loss observed by TGA ([2]; before 180° C. (onset of degradation)): about 0.7%
weight loss observed by TGA ([2]; before 180° C. (onset of degradation), listed as MRTX1133 Form VIII): 0.7% weight loss observed
water uptake by DVS [4]: about 1.3%
water uptake by DVS ([4]; listed as MRTX1133 Form VIII): 1.3% water uptake at
Bulk (UPLC) purity [3, 7]: 98.0%
Bulk (UPLC) purity [3, 8]: 98.0%
Bulk (XRPD) form [3, 8]: No form change
Bulk color [3, 8]: no change of color
Bulk (UPLC) purity [3, 9]: 98.1%
Bulk (UPLC) purity [3, 10]: 98.0%
Bulk (XRPD) form [3, 10]: No form change
Bulk color [3, 10]: no change of color
Bulk (UPLC) purity [3, 11]: 98.0%
Bulk (XRPD) form [3, 11]: No form change
Bulk (UPLC) purity [3, 12]: 98.1%
Bulk (XRPD) form [3, 12]: No form change
Bulk color [3, 12]: no change of color
Bulk (UPLC) purity [3, 13]: 98.1%
Bulk (UPLC) purity [3, 14]: 98.1%
Bulk (XRPD) form [3, 14]: No form change
Bulk color [3, 14]: no change of color
Initial Purity by UPLC [3]: 98.0%
stability under the conditions tested (conclusion) [1]: much more stable; also recorded: stable
Moisture ([1]; 25° C./60% RH, 1M): 0.64 % w/w
Assay ([1]; 25° C./60% RH, 1M, by HPLC): 96.8 w/w %
Total Impurities ≥ 0.05% ([1]; 25° C./60% RH, 1M, by HPLC): 2.1 Area %
Moisture ([1]; 25° C./60% RH, 3M): 0.49 % w/w
Assay ([1]; 25° C./60% RH, 3M, by HPLC): 97.3 w/w %
Total Impurities ≥ 0.05% ([1]; 25° C./60% RH, 3M, by HPLC): 2.1 Area %
Moisture ([1]; 25° C./60% RH, 6M): 0.53 % w/w
Assay ([1]; 25° C./60% RH, 6M, by HPLC): 96.4 w/w %
Total Impurities ≥ 0.05% ([1]; 25° C./60% RH, 6M, by HPLC): 1.9 Area %
moisture content trend ([1]; 40° C./75% RH): relatively stable
Moisture ([1]; 40° C./75% RH, 1M): 0.62 % w/w
Assay ([1]; 40° C./75% RH, 1M, by HPLC): 96.6 w/w %
Total Impurities ≥ 0.05% ([1]; 40° C./75% RH, 1M, by HPLC): 2.2 Area %
Moisture ([1]; 40° C./75% RH, 3M): 0.54 % w/w
Assay ([1]; 40° C./75% RH, 3M, by HPLC): 97.4 w/w %
Total Impurities ≥ 0.05% ([1]; 40° C./75% RH, 3M, by HPLC): 2.3 Area %
Moisture ([1]; 40° C./75% RH, 6M): 0.78 % w/w
Assay ([1]; 40° C./75% RH, 6M, by HPLC): 96.1 w/w %
Total Impurities ≥ 0.05% ([1]; 40° C./75% RH, 6M, by HPLC): 2.2 Area %
Moisture ([1]; T(0)): 0.55 % w/w
Assay ([1]; T(0), by HPLC): 96.9 w/w %
Total Impurities ≥ 0.05% ([1]; T(0), by HPLC): 2.5 Area %
trend of impurity values and assay results [1]: no increases in impurity values and no decreases in assay results
